System: MOG-induced chronic EAE in C57BL/6 mice
Format: in vivo
Excerpt: The effect of the two formulations on MOG (myelin-oligodendrocyte-glycoprotein)-induced chronic EAE in C57BL/6 mice was examined according to the procedure described below.
Forty (40) female C57BL/6 mice had been randomly grouped into three (3) groups by body weight in this study; each group consisted of ten (10) mice. […] EAE had been induced by injection of emulsion of MOG subcutaneously on the shaved back of the mouse at three sites, followed by an intraperitoneal injection of Bordetella pertussis toxin in PBS on Day 0 and 48 hours post MOG immunization. EAE had been assessed by clinical scoring of the mice once daily from Day 0 to Day 14 post immunization. […] On Day 14, mice had been terminated.
After anesthetization by isoflurane (2-3%, inhalation), EAE had been induced by injecting 100 μL emulsion subcutaneously into the shaved backs of the mice. Bordetella pertussis toxin (200 ng in 200 μL of PBS) had been administered i.p. on the day of immunization (Day 0) and 48 hours thereafter. […]
Body weight of all mice had been recorded daily starting from Day 0 to Day 14. EAE development had been assessed by clinically scoring of the mice once daily from Day 0 to Day 14 post immunization according to a scale of 0-5 (0=normal mouse; 1=limp tail or hind limb weakness; 2=limp tail and hind limb weakness; 3=partial hind limb paralysis; 4=complete hind limb paralysis; and 5=moribund state). […]

For “L-glutamic acid polymer with L-alanine, L-lysine and L-tyrosine, acetate (salt) [GA]”, the Maximum score (clinical score scale 0-5, days 0-14, 5 mg GA/mice/day i.m. on day 0 and day 1) was 0.5 ± 0.31 and the Disease duration (days 0-14, 5 mg GA/mice/day i.m. on day 0 and day 1) was 0.5 ± 0.31.
